The values below come from patent US20080249132A1, “Piperidine Carboxyamide Derivate Suitable as Tachykinin Receptor Antagonist” (priority 2005, published 2008).

In this assay the target is T1, recombinant human NK1 receptors (Homo sapiens, UniProt P25103).
T1 construct: expressed in transfected cells; membrane preparation
As to the kind of experiment: NK1 receptor filtration binding assay, displacement of [3H]-Substance P. To be noted: displacement of [3H]-substance P from recombinant human NK1 receptors expressed in CHO cell membranes; average of at least two determinations; read-out: pKi (negative logarithm of the inhibition constant Ki) (converted). On the procedure: NK1-receptor binding affinity has been determined in vitro in filtration binding assay by measuring the compounds' ability to displace [^3H]-Substance P (SP) from recombinant human NK1 receptors stably expressed in Chinese Hamster Ovary (CHO) cell membranes prepared by using a modification of the method described by Beattie D. T. et al. (Br. J. Pharmacol, 116:3149-3157, 1995).
Briefly, ligand binding was performed in 0.4 ml of 50 mM HEPES, pH 7.4, containing 3 mM MnCl2, 0.02% BSA, 0.5 nM [^3H]-Substance P (30-56 Ci/mmol Amersham), a final membrane protein concentration of 30-50 μg/ml, and the test compounds. The incubation proceeded at room temperature for 40 min and was stopped by filtration. Non-specific binding was determined using excess of substance P (1 μM) and represents about 6-10% of the total binding. IC50 values of each compound were determined by an 8-point 10×-dilution inhibition curve. pKi values were calculated using the KD of [^3H]-Substance P determined in a separate experiment.
The affinity of the compound of the invention for NK1 receptor was determined using the NK1 receptor binding affinity method measuring in vitro the compounds' ability to displace [3H]—substance P (SP) from recombinant human NK1 receptors expressed in Chinese Hamster Ovary (CHO) cell membranes. […]

T1 sequence (P25103 whole entry): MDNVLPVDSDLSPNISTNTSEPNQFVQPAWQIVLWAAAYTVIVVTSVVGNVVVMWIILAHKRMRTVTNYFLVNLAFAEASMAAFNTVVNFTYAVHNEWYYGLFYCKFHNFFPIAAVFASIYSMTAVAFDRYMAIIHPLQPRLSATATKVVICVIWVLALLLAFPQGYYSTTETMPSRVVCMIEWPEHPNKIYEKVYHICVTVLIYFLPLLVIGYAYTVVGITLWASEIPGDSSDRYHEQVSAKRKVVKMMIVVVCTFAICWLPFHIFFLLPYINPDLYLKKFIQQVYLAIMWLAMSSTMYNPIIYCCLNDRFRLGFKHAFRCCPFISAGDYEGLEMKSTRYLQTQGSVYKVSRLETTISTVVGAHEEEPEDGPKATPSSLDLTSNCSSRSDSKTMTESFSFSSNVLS

A word on the Ki: it is a measure of affinity in units of concentration, obtained from inhibition or displacement. Regarding `CC(=O)NCCN[C@H]1CCN(C(=O)N(C)[C@H](C)c2cc(C(F)(F)F)cc(C(F)(F)F)c2)[C@@H](c2ccc(F)cc2C)C1` [Example 1, (2R,4S)-4-{[2-(acetylamino)ethyl]amino}-N-{(1R)-1-(3,5-bis(trifluoromethyl)phenyl)ethyl}-2-(4-fluoro-2-methylphenyl)-N-methyl-1-piperidinecarboxamide], the Ki is 0.02 nM.
